Reference: patent US11702404B2, “GLP-1R modulating compounds” (priority 2019, dated 2023)
Read-outs that look alike come from different tables or passages of the source.

Experiments:
[1] = Microsomal stability, human liver microsomes (predicted hepatic clearance); details: predicted from in vitro microsomal stability data
GLP-1R = GLP-1R (Homo sapiens, UniProt P43220); assay: GLP-1R activation: cAMP increase in CHO cells stably expressing GLP-1R; type: cell-based; details: read-out: EC50
[2] = cAMP increase, CHO cells stably expressing GLP-1R, 10 point dose response, 30 minutes incubation

Sequence of GLP-1R (P43220 24-463): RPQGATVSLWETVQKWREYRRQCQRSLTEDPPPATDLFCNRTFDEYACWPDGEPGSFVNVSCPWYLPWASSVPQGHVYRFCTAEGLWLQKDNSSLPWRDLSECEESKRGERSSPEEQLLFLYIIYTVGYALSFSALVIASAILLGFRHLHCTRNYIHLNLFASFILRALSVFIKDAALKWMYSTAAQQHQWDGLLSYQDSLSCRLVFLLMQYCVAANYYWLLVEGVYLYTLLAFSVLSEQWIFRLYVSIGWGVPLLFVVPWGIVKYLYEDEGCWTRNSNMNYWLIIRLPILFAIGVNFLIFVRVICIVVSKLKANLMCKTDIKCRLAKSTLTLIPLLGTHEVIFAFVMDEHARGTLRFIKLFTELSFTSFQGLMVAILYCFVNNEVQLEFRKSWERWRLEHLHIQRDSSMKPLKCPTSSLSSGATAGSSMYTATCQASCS

Row | Structure (SMILES) | Predicted Hepatic Clearance (Pred. Cl.) [1] [mL/min/kg] | EC50 (GLP-1R; [2]) [nM] | EC50 (GLP-1R) [nM]
1 | COCCn1c(Cc2ccc(-c3cccc(OCc4ccc(C#Cc5cncnc5)cc4F)n3)cc2F)nc2ccc(C(=O)O)cc21 [Example 842, 2-(2-fluoro-4-(6-((2-fluoro-4-(pyrimidin-5-ylethynyl)benzyl)oxy)pyridin-2-yl)benzyl)-1-(2-methoxyethyl)-1H-benzo[d]imidazole-6-carboxylic acid] | 1.83 | 4.73 | 
2 | COCCn1c(Cc2ccc(-c3cc(C#N)cc(OCc4ccc(C#N)cc4F)c3)cc2F)nc2ccc(C(=O)O)cc21 [Example 29, 2-((3′-cyano-5′-((4-cyano-2-fluorobenzyl)oxy)-3-fluoro-[1,1′-biphenyl]-4-yl)methyl)-1-(2-methoxyethyl)-1H-benzo[d]imidazole-6-carboxylic acid] | 5.17 | 57 | 
3 | C[C@@]1(Cn2c(Cc3cc(F)c(-c4cccc(OCc5ccc(C#N)cc5F)n4)cc3F)nc3ccc(C(=O)O)cc32)CCCO1 (racemic) [Example 548, 2-(4-(6-((4-cyano-2-fluorobenzyl)oxy)pyridin-2-yl)-2,5-difluorobenzyl)-1-((2-methyltetrahydrofuran-2-yl)methyl)-1H-benzo[d]imidazole-carboxylic acid] | 7.5 | 9.01 | 
4 | CCn1cncc1Cn1c(Cc2ccc(-c3cccc(OCc4ccc(C#N)cc4F)n3)cc2C#N)nc2ccc(C(=O)O)cc21 [Example 522, 2-(2-cyano-4-(6-((4-cyano-2-fluorobenzyl)oxy)pyridin-2-yl)benzyl)-1-((1-ethyl-1H-imidazol-5-yl)methyl)-1H-benzo[d]imidazole-carboxylic acid] | <1.83 | 137 | 
5 | COCCn1c(Cc2ccc(-c3cccc(OCc4ccc(C#N)cc4F)n3)cc2C#CC2(C)COC2)nc2ccc(C(=O)O)cc21 [Example 232, 2-(4-(6-((4-cyano-2-fluorobenzyl)oxy)pyridin-2-yl)-2-((3-methyloxetan-3-yl)ethynyl)benzyl)-1-(2-methoxyethyl)-1H-benzo[d]imidazole-6-carboxylic acid] | 18.7 | 17.8 | 
6 | N#Cc1ccc(COc2cccc(-c3ccn(Cc4nc5ccc(C(=O)O)cc5n4CC4(n5ccnn5)CC4)c(=O)c3)n2)c(F)c1 [Example 421, 1-((1-(1H-1,2,3-triazol-1-yl)cyclopropyl)methyl)-2-((6-((4-cyano-2-fluorobenzyl)oxy)-2′-oxo-[2,4′-bipyridin]-1′(2′H)-yl)methyl)-1H-benzo[d]imidazole-6-carboxylic acid] | <1.83 | 327 | 
7 | COCCn1c(Cc2ccc(-c3cccc(OCc4ccc(C#N)cc4F)n3)cc2F)nc2ccc(C(O)CO)cc21 (racemic) [Example 582] | 15.2 | 3460 | 
8 | COc1cc(Cl)ccc1COc1cccc(-c2ccc(Cc3nc4ccc(C(=O)O)cc4n3CC3(CC#N)CC3)cc2F)n1 [Example 74, 2-(4-(6-((4-chloro-2-methoxybenzyl)oxy)pyridin-2-yl)-3-fluorobenzyl)-1-((1-(cyanomethyl)cyclopropyl)methyl)-1H-benzo[d]imidazole-6-carboxylic acid] | 13.2 | 0.46 | 
9 | N#Cc1ccc(COc2cccc(-c3ccc(Cc4nc5ccc(C(=O)O)cc5n4CC4CC4)c(F)c3)n2)c(F)c1 [Example 389, 2-(4-(6-((4-cyano-2-fluorobenzyl)oxy)pyridin-2-yl)-2-fluorobenzyl)-1-(cyclopropylmethyl)-1H-benzo[d]imidazole-6-carboxylic acid] | <1.83 | 26.6 | 
10 | COCCn1c(Cc2cc(F)c(-c3cccc(OCc4ccc(C(F)(F)F)nc4)n3)cc2F)nc2ccc(C(=O)O)cc21 [Example 861] | 1.83 | 16.5 | 
11 | COCCn1c(Cc2cc(F)c(-c3nc(OCc4ccc(C(F)F)cc4F)ccc3F)cc2F)nc2ccc(C(=O)O)cc21 [Example 661] | 4 | 1.95 | 
12 | COCCn1c(Cc2cc(F)c(-c3nc(OCc4ccc(C(F)F)cc4F)ccc3F)cc2F)nc2c(F)cc(C(=O)O)cc21 [Example 664] | 4.67 | 0.67 | 
13 | COCCn1c(Cc2ccc(-c3cccc(OCc4ccc(C#N)cc4F)c3)cc2F)nc2ccc(C(=O)O)cc21 [Example 6, 2-((3′-((4-cyano-2-fluorobenzyl)oxy)-3-fluoro-[1,1′-biphenyl]-4-yl)methyl)-1-(2-methoxyethyl)-1H-benzo[d]imidazole-6-carboxylic acid] | 3.5 | 56.1 | 
14 | N#Cc1ccc(COc2cccc(-c3cc(F)c(Cc4nc5cc(F)c(C(=O)O)cc5n4CC4(CF)CC4)cc3F)n2)c(F)c1 [Example 205, 2-(4-(6-((4-cyano-2-fluorobenzyl)oxy)pyridin-2-yl)-2,5-difluorobenzyl)-5-fluoro-1-((1-(fluoromethyl)cyclopropyl)methyl)-1H-benzo[d]imidazole-6-carboxylic acid] | 5 | 3.23 | 
15 | CN(C)CC1(Cn2c(Cc3ccc(-c4cccc(OCc5ccc(C#N)cc5F)n4)cc3F)nc3ccc(C(=O)O)cc32)CC1 [Example 290, 2-(4-(6-((4-cyano-2-fluorobenzyl)oxy)pyridin-2-yl)-2-fluorobenzyl)-1-((1-((dimethylamino)methyl)cyclopropyl)methyl)-1H-benzo[d]imidazole-6-carboxylic acid] | 8.42 | 62.3 | 
16 | CO[C@@H]1CN(C(C)=O)C[C@@H]1n1c(Cc2cc(F)c(-c3cccc(OCc4ccc(C#N)cc4F)n3)cc2F)nc2ccc(C(=O)O)cc21 [Example 919] | 4.17 |  | 840
17 | N#Cc1ccc(COc2cccc(-c3cc(F)c(Cc4nc5ccc(C(=O)O)cc5n4CC4CCCCO4)cc3F)n2)c(F)c1 (stereo not drawn) [Example 640] | 8.5 | 16.6 | 
18 | O=C(O)c1ccc2nc(Cc3cc(F)c(-c4cccc(OCc5ccc(C(F)F)cc5F)n4)cc3F)n(CC3(CF)CC3)c2c1 [Example 719] | 1.83 | 0.37 | 
19 | COCCn1c(Cc2ccc(-c3cc(C(F)(F)F)cc(OCc4ccc(C#N)cc4F)n3)cc2F)nc2ccc(C(=O)O)cc21 [Example 90, 2-(4-(6-((4-cyano-2-fluorobenzyl)oxy)-4-(trifluoromethyl)pyridin-2-yl)-2-fluorobenzyl)-1-(2-methoxyethyl)-1H-benzo[d]imidazole-6-carboxylic acid] | 10 | 72.4 | 
20 | COCCn1c(Cc2ccc(-c3cccc(OCc4ccc(C(F)(F)F)cc4)n3)cc2F)nc2ccc(C(=O)O)cc21 [Example 508, 2-(2-fluoro-4-(6-((4-(trifluoromethyl)benzyl)oxy)pyridin-2-yl)benzyl)-1-(2-methoxyethyl)-1H-benzo[d]imidazole-6-carboxylic acid] | 2.5 | 16.5 | 
21 | N#Cc1ccc(COc2nccc(-c3cc(F)c(Cc4nc5ccc(C(=O)O)cc5n4CCOC4CC4)cc3F)n2)c(F)c1 [Example 897] | 2.17 | 4.1 | 
